According to patent publication US8304239B2, “Direct regeneration of plantlets in Jatropha curcas” (Reliance Life Sciences PVT Ltd., priority 2006, dated 2012):

Experiments:
[1] = system: Jatropha leaf disc explants; assay: Adventitious bud induction and callus formation from leaf disc explants on initiation media; assay type: cell-based, Jatropha curcas; settings: TDZ treatment
From the text: Micropropagated true-to-type Jatropha curcas plants were produced and leaf discs were isolated and sterilized using the methods described in Example 1.
Experiments were set-up in a single-factor CRD (one-way ANOVA) to identify the most optimal concentrations of TDZ, BAP, and IBA in the initiation media. Initiated shoots were further propagated as described in the above Examples by being transferred to proliferation and elongation medium which was MS medium (Table 2) with 3% sucrose (w/v), pH 5.8 and solidified with 0.8% agar supplemented with TDZ (0.22 μM)+BAP (4.44 μM)+gibberelic acid (0.70 μM)+IBA (0.50 μM).
All the treatments were performed with 25 replicates, each replication having 8 leaf discs. Data on number of shoots per leaf disc were recorded after 6 weeks of culture.
Leaf discs cultured on almost all hormonal combinations readily produced hard and compact callus on cut surface within 30 days of culture. The adventitious bud induction from leaf disc explants was studied in presence of various concentrations of TDZ and BAP as a source of cytokinin along with very low levels of IBA.
Data scored after 6 weeks of culture inoculation.

[2] = system: shoots of Jatropha curcas; assay: Rooting of well grown shoots on full strength MS medium; assay type: cell-based; settings: full strength MS medium supplemented with IBA (0.41 μM)
Method: Well grown shoots of Jatropha curcas were separated individually and rooted on full strength MS medium supplemented with IBA (0.41 μM). Rooting was 80% and occurred after 30-45 days of culture without any intermediary callus phase. (FIG. 4)

For `O=C(Nc1ccccc1)Nc1cnns1` [TDZ, 1-phenyl-3-(1,2,3-thiadiazol-5-yl) urea], the “total number of shoot bud induction per leaf disc” value [1] was 4-20 buds.

With `O=C(O)CCCc1c[nH]c2ccccc12` [IBA, indole-3-butyric acid] the “Time until rooting occurred” value [2] was 30 to 45 days and the Rooting ([2]; without intermediary callus phase) was 80%.
